From US9365608B2, “Method for treating diabetes” (Ohr Pharmaceutical, Inc., priority 2007, dated 2016)
Entries after “also recorded” stand apart in the source; their conditions may differ.

Experiments:
Db/db (Lepr^db) mouse [1] = assay: Fasting blood glucose in the diabetic Db/db mouse; type: in vivo; conditions: Db/db mice; for % Reduction in FBG: 5 or 10 mg/kg ip every 3 days x4 doses, study day 14 after overnight fast, vs saline; for Reduction of FBG levels compared to saline control (in words): study day 14
Procedure: (§1) To determine in vivo efficacy of the steroid analogues a Db/db (Lepr^db) in mouse model was used. Db/db mice are extensively used for screening of antidiabetic agents. Db/db mice were treated with either saline or 5 or 10 mg/kg steroid analogue every 3 days for a total of 4 doses via ip injection. Body weight, glucose tolerance and fasting blood glucose levels were measured for each group during the study. Each group had at least an N of 4 animals. All reagents and lab animals are commercially available.
On study day 13, all animal groups were fasted overnight. On study day 14, 25 μL of whole blood was collected and analyzed for the glucose level (mg/dL) using a glucose analyzer.

Db/db (Lepr^db) mouse [2] = assay: Oral glucose tolerance test (OGTT) in the diabetic Db/db mouse; type: in vivo; conditions: for % Reduction in OGTT Above Baseline AUC / Reduction in ABAUC compared to saline control (in words): Db/db mice; for % Reduction in OGTT Above Baseline AUC: 5 or 10 mg/kg ip every 3 days x4, day 14, oral glucose 1.5 g/kg, 0-120 min, vs saline; for Reduction in ABAUC compared to saline control (in words): OGTT study day 14, p<0.05; for Response in glucose tolerance test vs saline treated controls (FIG. 3 legend): legend says ob/ob mice
Procedure: as §1
Also on study day 14, an OGTT was performed to assess glucose tolerance. At time 0, an oral glucose challenge (1.5 g/kg) was administered by oral gavage. At timepoints 0, 15, 30, 60, 90, 120 min post glucose load, 25 μl of whole blood was withdrawn from the tail vein of the animal and the glucose level was measured using a glucose analyzer. The glucose concentration vs time was plotted (FIG. 2). Above baseline area under the curve (ABAUC) of the glucose excursion time curve was determined using trapezoidal rule analyses.

Db/db (Lepr^db) mouse [3] = assay: Body weight change in the diabetic Db/db mouse; type: in vivo; conditions: Db/db mice, 5 or 10 mg/kg ip every 3 days x4; for % Change in Body Weight: vs body weight on study day 0
Procedure: as §1
Starting at study day 0, body weight measurements were taken every day for each group for up to 30 days. Percent change in body weight was calculated as the fractional response of body weight on study day X over the original body weight on study day 0.

full length TCPTP = target: T1, full length TCPTP (Homo sapiens, UniProt P17706); assay: Inhibition of TCPTP by steroid analogues (pNPP hydrolysis); type: biochemical; conditions: 200 μM inhibitor; pNPP substrate
T1 construct: except full length TCPTP was used as the enzyme
T1 sequence (P17706 1-415): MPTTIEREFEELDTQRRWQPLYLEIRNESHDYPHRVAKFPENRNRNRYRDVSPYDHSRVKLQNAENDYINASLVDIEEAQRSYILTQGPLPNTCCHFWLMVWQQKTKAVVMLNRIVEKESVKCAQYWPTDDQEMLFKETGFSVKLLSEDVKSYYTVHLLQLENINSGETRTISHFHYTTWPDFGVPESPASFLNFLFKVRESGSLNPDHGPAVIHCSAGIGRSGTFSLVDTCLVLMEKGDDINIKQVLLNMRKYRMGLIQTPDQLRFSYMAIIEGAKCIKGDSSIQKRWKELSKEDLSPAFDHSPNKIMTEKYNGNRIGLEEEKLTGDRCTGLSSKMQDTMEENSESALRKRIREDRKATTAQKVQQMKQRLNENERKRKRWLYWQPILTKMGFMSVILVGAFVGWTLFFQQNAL
Procedure: (§2) The steroid analogues were tested for inhibition against the commercially available full length tyrosine phosphatase PTP1B. The ability of each analogue to inhibit the activity of PTP1B was measured in the presence of 10 μM of the steroid analogue. The assay uses para-nitro-phenyl phosphate (pNPP), a non-specific substrate to assess phosphatase activity. Phosphatase activity was based on the ability of PTP 1B to catalyze the hydrolysis of pNPP to p-nitrophenol (pNP).
The steroid analogues were also tested for their ability to inhibit the tyrosine phosphatase TCPTP as an indication of their potential toxicity by the inhibition of the immune response. The TCPTP inhibition assay was done in the same manner as the PTP1B assay except full length TCPTP was used as the enzyme and the inhibitor was at a concentration of 200 μM. The results of the TCPTP inhibition assays are shown in Table 1, column D and show three compounds that inhibit TCPTP less than 50% even at a 20 fold greater concentration.

[4] = target: T2, full length tyrosine phosphatase PTP1B (Homo sapiens, UniProt P18031); assay: Inhibition of PTP1B by steroid analogues (pNPP hydrolysis, absorbance 405 nm); type: biochemical; conditions: read-out: PTP1B Inhibition (5 μM)
T2 construct: commercially available full length tyrosine phosphatase PTP1B; purchased
T2 sequence (P18031 1-435): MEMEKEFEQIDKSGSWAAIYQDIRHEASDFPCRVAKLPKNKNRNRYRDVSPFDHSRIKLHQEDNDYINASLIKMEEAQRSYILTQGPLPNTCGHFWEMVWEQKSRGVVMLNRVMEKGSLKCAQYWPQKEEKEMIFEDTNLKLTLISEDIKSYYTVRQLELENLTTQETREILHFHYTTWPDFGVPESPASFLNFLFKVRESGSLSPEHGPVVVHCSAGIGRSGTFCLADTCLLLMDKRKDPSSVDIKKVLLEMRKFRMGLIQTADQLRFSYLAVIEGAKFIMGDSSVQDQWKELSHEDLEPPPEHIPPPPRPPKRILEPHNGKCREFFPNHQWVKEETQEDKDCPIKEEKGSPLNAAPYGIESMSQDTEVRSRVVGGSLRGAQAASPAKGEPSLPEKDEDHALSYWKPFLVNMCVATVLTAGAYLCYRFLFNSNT
Procedure: as §2, with “The ability of each analogue to inhibit the activity of PTP1B was measured in the presence of 10 μM of the steroid analogue.” left out

[5] = previously described in US patents; cited from earlier work
[6] = tested on: Insulin Receptor β (IR-β) in the hypothalamus; assay: Phosphorylation of IR-β in the rat hypothalamus (IP / anti-pTyr western blot); type: in vivo; conditions: male SD rats, 10 mg/kg i.p. Day 0; insulin 100 U/kg i.p. Day 1; 15 or 30 min post-dose; listed as MSI-1436, 10 mg/kg
Procedure: Male SD rats were divided into 8 groups with 4 rats per group. All rats were fed ad libitum normal rodent chow and regular tap water. On Day 0, rats were dosed via intraperitoneal (i.p.) injection with 10 mg/kg MSI-1436 or 0.9% saline. Rats were fasted overnight from Day 0 to Day 1. On Day 1, animals were dosed i.p. with 0.9% saline or 100 U/kg of insulin. At 15 or 30 minutes post-dose (Day 1), animals were sacrificed and the hypothalamuses were harvested, transferred to 1.5 mL eppendorf tubes, and frozen in liquid nitrogen. Samples were stored at −80° C. until further analysis. Hypothalamuses were pooled (3-4 per group) and homogenized in 2-mL Wheaton vials and Dounce homogenizers in 1 mL of tissue extraction reagent plus phosphatase and protease inhibitors. Lysates were centrifuged for 10 minutes at 4° C. (14,000 rpm) and the supernatants were transferred to new 1.5 mL eppendorf tubes. Lysates (500 μg) were immunoprecipitated for Insulin Receptor β overnight at 4° C. The samples were then bound to Protein A according to standard protocols for 4 hours at 4° C. […]
500 μg of total protein from each sample was loaded onto a 1.5 mm 4-12% Bis-Tris Novex gel and run at 175V for approximately 1 hr in 1×MOPS buffer. […] The ratio of the pTyr-IRβ band to the IRβ band was computed in Excel and the fold change in IR phosphorylation determined. […]

CC(C)[C@@H](CC[C@@H](C)[C@H]1CCC2C3C(CC[C@@]21C)[C@@]1(C)CC[C@H](NCCCNCCCCNCCCN)C[C@H]1C[C@H]3O)OS(=O)(=O)O (stereo partly drawn) [Compound 1701]
% Reduction in FBG (Db/db (Lepr^db) mouse [1]): 40% | Reduction of FBG levels compared to saline control (in words) (Db/db (Lepr^db) mouse [1]): significant reduction | % Reduction in OGTT Above Baseline AUC (Db/db (Lepr^db) mouse [2]): 49% | Reduction in ABAUC compared to saline control (in words) (Db/db (Lepr^db) mouse [2]): significant reduction | Response in glucose tolerance test vs saline treated controls (FIG. 3 legend) (Db/db (Lepr^db) mouse [2]): respond significantly faster | Weight loss (in words) (Db/db (Lepr^db) mouse [3]): do not produce weight loss | % Change in Body Weight (Db/db (Lepr^db) mouse [3]): 3%

CC(C)CCC[C@@H](C)[C@H]1CCC2C3C(CC[C@@]21C)[C@@]1(C)CC[C@H](NCCCNCCCCN)C[C@@H]1C[C@H]3O (stereo partly drawn) [Compound 1371]
inhibition at 200 µM (full length TCPTP): 0%

CC(C)[C@@H](CC[C@@H](C)[C@H]1CCC2C3C(CC[C@@]21C)[C@@]1(C)CCC(O)C[C@H]1C[C@H]3O)OS(=O)(=O)O (stereo partly drawn) [Compound 2459]
inhibition at 5 µM [4]: 17%

COC(=O)CC[C@@H](C)[C@H]1CCC2C3C[C@@H](O)[C@H]4C[C@@H](NCCN)CC[C@]4(C)C3CC[C@@]21C (stereo partly drawn) [Compound 1431]
% Reduction in FBG (Db/db (Lepr^db) mouse [1]): 55% | Reduction of FBG levels compared to saline control (in words) (Db/db (Lepr^db) mouse [1]): significant reduction | % Reduction in OGTT Above Baseline AUC (Db/db (Lepr^db) mouse [2]): 47% | Reduction in ABAUC compared to saline control (in words) (Db/db (Lepr^db) mouse [2]): significant reduction | Weight loss (in words) (Db/db (Lepr^db) mouse [3]): weight loss similar to 1436 | % Change in Body Weight (Db/db (Lepr^db) mouse [3]): −7%

CC(C)[C@@H](CC[C@@H](C)[C@H]1CCC2C3C(CC[C@@]21C)[C@@]1(C)CC[C@H](NCCCNCCCCNCCCN)C[C@@H]1C[C@H]3O)OS(=O)(=O)O (stereo partly drawn) [Compound 1873]
% Reduction in FBG (Db/db (Lepr^db) mouse [1]): 41% | Reduction of FBG levels compared to saline control (in words) (Db/db (Lepr^db) mouse [1]): significant reduction | % Reduction in OGTT Above Baseline AUC (Db/db (Lepr^db) mouse [2]): 47% | Reduction in ABAUC compared to saline control (in words) (Db/db (Lepr^db) mouse [2]): significant reduction | Response in glucose tolerance test vs saline treated controls (FIG. 3 legend) (Db/db (Lepr^db) mouse [2]): respond significantly faster | Weight loss (in words) (Db/db (Lepr^db) mouse [3]): do not produce weight loss | % Change in Body Weight (Db/db (Lepr^db) mouse [3]): 4%

CC(C)[C@@H](CC[C@@H](C)C1CCC2C3C(CC[C@@]21C)[C@@]1(C)CCC(=O)C[C@H]1C[C@@H]3O)S(=O)(=O)O (stereo partly drawn) [Compound 2347]
inhibition at 5 µM [4]: 27%

CC(C)CCC[C@@H](C)[C@H]1CCC2C3CC[C@H]4C[C@@H](NCCCNCCCCNCCCN)CC[C@]4(C)C3CC[C@@]21C (stereo partly drawn) [Compound 1303]
inhibition at 200 µM (full length TCPTP): 83%

CC(C)[C@@H](CC[C@@H](C)[C@H]1CCC2C3C(CC[C@@]21C)[C@@]1(C)CC[C@H](NCCCNCCCCNCCCN)C[C@@H]1C[C@H]3O)OS(=O)(=O)O (stereo partly drawn) [Compound 1436]
% Reduction in FBG (Db/db (Lepr^db) mouse [1]): 64% | Reduction of FBG levels compared to saline control (in words) (Db/db (Lepr^db) mouse [1]): significant reduction | % Reduction in OGTT Above Baseline AUC (Db/db (Lepr^db) mouse [2]): 83% | Reduction in ABAUC compared to saline control (in words) (Db/db (Lepr^db) mouse [2]): significant reduction | Weight gain and appetite in animal models [5]: inhibit weight gain and suppress appetite | Amount of phospho-Tyrosine on insulin stimulated IR-β in the hypothalamus (fold change, pTyr-IRβ/IRβ) [6]: can increase the level; also recorded: nearly doubles | inhibition at 200 µM (full length TCPTP): 0% | % Change in Body Weight (Db/db (Lepr^db) mouse [3]): −8%

C[C@H](CCS(=O)(=O)O)[C@H]1CCC2C3CC[C@H]4C[C@@H](NCCCNCCCCN)CC[C@]4(C)C3CC[C@@]21C (stereo partly drawn) [Compound 1370]
inhibition at 200 µM (full length TCPTP): 44%

CNCCNC(C)[C@H]1CCC2C3CC=C4CC(O)CC[C@]4(C)C3CC[C@@]21C (stereo partly drawn) [Compound 2498]
inhibition at 5 µM [4]: 13%

CC(C)[C@H](OS(=O)(=O)O)[C@@H](C)[C@H]1CCC2C3C(CC[C@@]21C)[C@@]1(C)CC[C@H](NCCCNCCCCNCCCN)C[C@@H]1C[C@H]3O (stereo partly drawn) [Compound 1814]
% Reduction in FBG (Db/db (Lepr^db) mouse [1]): 46% | Reduction of FBG levels compared to saline control (in words) (Db/db (Lepr^db) mouse [1]): significant reduction | % Reduction in OGTT Above Baseline AUC (Db/db (Lepr^db) mouse [2]): 60% | Reduction in ABAUC compared to saline control (in words) (Db/db (Lepr^db) mouse [2]): significant reduction

COC(=O)CC[C@@H](C)[C@H]1CCC2C3C(CC[C@@]21C)[C@@]1(C)CC[C@H](NCCCNCCCCN)C[C@@H]1C[C@H]3O (stereo partly drawn) [Compound 1320]
inhibition at 200 µM (full length TCPTP): 0%
